Assay results as given in paper PMC12467033, “Exploring the Inhibitory Potential of Six Porphyrin Compounds Against α-Amylase and α-Glucosidase Linked to Diabetes” (Biomolecules, 2025).

Tests used:
[1] = target: T1, α-glucosidase (Saccharomyces cerevisiae, UniProt P53341); assay: α-Glucosidase inhibitory activity assay (pNPG substrate); type: biochemical; details: 37 °C
Procedure: The experimental groups were supplemented with different concentrations of porphyrin compounds, followed by the addition of 100 μL of 5 mmol/L pNPG. After thorough mixing, the samples were pre-incubated at 37 °C for 10 min. Subsequently, the reaction was terminated by adding 0.1 mol/L of sodium carbonate (Na2CO3) solution. Following a 3 min reaction period, the absorbance of the solutions at 405 nm was measured using a microplate reader. The inhibition rate (%) was subsequently calculated using Formula (1).
Using the enzyme inhibition rate as the y-axis and the inhibitor concentration as the x-axis, the IC50 value was calculated through linear regression fitting with GraphPad Prism software (5.0).

[2] = test system: HepG2 cells; assay: MTT cytotoxicity assay; type: cell-based, human; details: 24 h
Procedure: The cytotoxicity of six porphyrin compounds against human hepatocellular carcinoma HepG2 cells was evaluated using the MTT assay. HepG2 cells were seeded into 96-well plates at a density of 5000 cells per well and cultured for 24 h at 37 °C in a 5% CO2 incubator. Then, 100 µL of sample solutions at various concentrations (50, 100, and 200 µg/mL) was added to the experimental wells, with blank control wells and solvent control wells also included. The cells were further incubated for 24 h. After incubation, 10 µL of MTT solution (5 mg/mL) was added to each well, and the plates were incubated for another 4 h. Subsequently, 100 µL of Formazan solubilization solution was added to each well, followed by gentle mixing. The plates were returned to the incubator and maintained until complete dissolution of Formazan crystals was observed under a microscope. The absorbance at 570 nm was measured using a microplate reader (Meigu Molecular Instrument Company, Shanghai, China), and the survival rate of HepG2 cells was calculated.(12) Cell viability=As-Ab/Ac-Ab×100%
In the formula, As represents the absorbance of the sample well, Ac denotes the absorbance of the blank control well (without the drug), and Ab refers to the absorbance of the solvent control well (devoid of both cells and the drug).

[3] = target: T2, α-amylase (Sus scrofa, UniProt P00690); assay: Three-dimensional fluorescence spectroscopy of α-amylase complexes; details: 298 K; TAPP 2.5, THPP 10, TCPP 10, Fe–TCPP 12.5, Ni–TCPP 17.5, Cu–TCPP 10 μg/mL
T2 sequence (P00690 16-511): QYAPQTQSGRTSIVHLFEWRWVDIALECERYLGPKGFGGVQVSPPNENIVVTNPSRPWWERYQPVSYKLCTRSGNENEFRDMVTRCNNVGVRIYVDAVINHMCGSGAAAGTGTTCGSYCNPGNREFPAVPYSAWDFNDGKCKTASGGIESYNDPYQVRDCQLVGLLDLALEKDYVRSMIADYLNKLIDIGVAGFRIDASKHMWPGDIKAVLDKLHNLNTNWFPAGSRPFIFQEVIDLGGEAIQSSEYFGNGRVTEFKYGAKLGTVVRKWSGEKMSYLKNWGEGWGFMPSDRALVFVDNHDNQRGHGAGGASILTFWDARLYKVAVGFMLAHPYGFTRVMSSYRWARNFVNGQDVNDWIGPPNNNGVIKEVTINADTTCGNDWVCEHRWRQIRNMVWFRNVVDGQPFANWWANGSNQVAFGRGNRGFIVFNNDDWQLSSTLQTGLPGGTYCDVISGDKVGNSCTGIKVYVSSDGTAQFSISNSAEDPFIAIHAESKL
Procedure: At 298 K, with excitation wavelengths ranging from 200 to 600 nm (2 nm increments) and emission wavelengths from 200 to 600 nm, the influence of small molecules on enzyme conformation was assessed by examining peaks in 3D fluorescence spectra [41].

[4] = target: T1, α-glucosidase; assay: In vitro stability study (temperature, pH), inhibition rate against α-glucosidase; type: physicochemical; details: water bath 30–100 °C, 20 min
Procedure: (§1) Samples of a certain mass concentration were subjected to a water bath at different temperatures (30, 40, 50, 60, 70, 80, 90, 100 °C) for 20 min and treated under different pH conditions (2.0, 3.0, 4.0, 5.0, 6.0, 7.0, 8.0, 9.0, and 10.0) for 20 min to determine the effect of temperature and pH on the stability of the two enzymes.

[5] = target: T2, α-amylase; assay: In vitro stability study (temperature, pH), inhibition rate against α-amylase; type: physicochemical; details: water bath 30–100 °C, 20 min
Procedure: as §1

[6] = target: T1, α-glucosidase; assay: Fluorescence quenching, binding and thermodynamics with α-glucosidase; details: for binding constants K: 310 K; for quenching mechanism of α-glucosidase fluorescence: Stern–Volmer plots; for quenching mechanism of α-glucosidase fluorescence / ΔH^0 / ΔS^0: 298–310 K; for ΔH^0 / ΔS^0: Van’t Hoff
Procedure: In the α-amylase experiment, a series of porphyrins and amylase (200 U/L) were mixed in a volume ratio of 1:1. In the α-glucosidase experiment, the glucosidase concentration was 400 U/L, mixed in a volume ratio of 1:1; the samples were maintained at three different temperatures (298, 304, and 310 K) for 30 min, with excitation at 280 nm and emission scanning from 300 to 500 nm.
The Stern–Volmer equation [35] was adopted to determine the quenching mechanisms between six porphyrin compounds and both enzymes in the experimental group, with Formula (6):(6) F0/F=1+Ksv[Q]=1+Kqτ0[Q]
The Stern–Volmer equation was adapted based on experimental data to more accurately characterize the quenching behavior [36], with Formula (7):(7) F0/F=e^Ksv[Q]=e^Kqτ0[Q]
In the formula, the fluorescence quenching ratio was calculated as F0/F, where F0 corresponds to the emission intensity of pure α-amylase solution (control) and F denotes the intensity measured after the incremental addition of porphyrin ligands. KSV and Kq denote the Stern–Volmer quenching constant and the bimolecular quenching rate constant, respectively, τ0 (10^−8 s) is the average fluorescence lifetime of the fluorophore in the absence of quencher, and [Q] indicates the concentration of porphyrin compounds.
Due to the presence of an internal filtration effect, a decrease in the fluorescence intensity of the system may occur. Therefore, all fluorescence data were corrected using Formula (8) to eliminate the internal filtration effect.(8) Fcor=Fobse^(Aex+Aem)/2
The evaluation of the interaction forces between porphyrin compounds and the two enzymes can be achieved by calculating thermodynamic parameters. When both ΔH^0 and ΔS^0 are positive, the predominant interaction force is hydrophobic. When both ΔH^0 and ΔS^0 are negative, the main forces are hydrogen bonding and van der Waals forces. When ΔH^0 < 0 and ΔS^0 > 0, the primary interaction is electrostatic attraction.
The thermodynamic parameters were calculated using Formulas (9) and (10), and then the Van’t Hoff plot for the interactions between the porphyrin compounds and the two enzymes was generated by plotting lnKa on the Y-axis versus 1/T on the X-axis.(9) lnKa=−ΔH^0/RT+ΔS^0/R (10) ΔG^0=ΔH^0−TΔS^0=−RTlnKa

T1 sequence (P53341 whole entry): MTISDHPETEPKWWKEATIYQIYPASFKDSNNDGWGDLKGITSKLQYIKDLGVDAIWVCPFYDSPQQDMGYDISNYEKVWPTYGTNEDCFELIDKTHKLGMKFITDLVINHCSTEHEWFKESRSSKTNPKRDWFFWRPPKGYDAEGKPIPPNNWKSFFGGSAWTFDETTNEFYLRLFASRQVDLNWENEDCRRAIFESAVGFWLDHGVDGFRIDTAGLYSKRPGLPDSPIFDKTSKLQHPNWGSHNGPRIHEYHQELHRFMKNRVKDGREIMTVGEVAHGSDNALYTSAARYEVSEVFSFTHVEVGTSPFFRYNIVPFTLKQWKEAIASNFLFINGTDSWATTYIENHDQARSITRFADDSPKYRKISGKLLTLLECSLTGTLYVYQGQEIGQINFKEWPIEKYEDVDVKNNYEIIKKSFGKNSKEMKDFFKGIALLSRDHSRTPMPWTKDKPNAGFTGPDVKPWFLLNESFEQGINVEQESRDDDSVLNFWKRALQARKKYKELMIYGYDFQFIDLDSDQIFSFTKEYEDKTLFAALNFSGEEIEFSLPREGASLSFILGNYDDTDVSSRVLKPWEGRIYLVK

| Structure (SMILES) | IC50 α-GLU [1] | Peak 1 Fluorescence Intensity [3] | Peak 2 Fluorescence Intensity [3] | thermal stability: inhibition rate against α-glucosidase [4] | thermal stability: inhibition rate against α-amylase [5] | binding constants K [6] | quenching mechanism of α-glucosidase fluorescence [6] | Ka (binding constant) ([6]; T 298 K) | Kq ([6]; T 298 K) | Ksv ([6]; T 298 K) | n (number of binding sites) ([6]; T 298 K) | ΔG^0 ([6]; T 298 K) | Ka (binding constant) ([6]; T 304 K) | Kq ([6]; T 304 K) | Ksv ([6]; T 304 K) | n (number of binding sites) ([6]; T 304 K) | ΔG^0 ([6]; T 304 K) | Ka (binding constant) ([6]; T 310 K) | Kq ([6]; T 310 K) | Ksv ([6]; T 310 K) | also measured |
| --- | --- | --- | --- | --- | --- | --- | --- | --- | --- | --- | --- | --- | --- | --- | --- | --- | --- | --- | --- | --- | --- |
| O=C(O)c1ccc(-c2c3nc(c(-c4ccc(C(=O)O)cc4)c4ccc([nH]4)c(-c4ccc(C(=O)O)cc4)c4nc(c(-c5ccc(C(=O)O)cc5)c5ccc2[nH]5)C=C4)C=C3)cc1.[Ni+2] [Ni–TCPP, nickel (II) meso-tetra (4-carboxyphenyl) porphine] | 6.58 ± 0.21 µg/mL | 225.2 | 9.012 | remained relatively stable | small fluctuations | (1.83 ± 0.01) × 10^5 L·mol^−1 | static quenching | 2.34 ± 0.04 ×10^5 L/mol | 17.73 ± 0.15 ×10^12 L/mol/s | 17.73 ± 0.15 ×10^4 L/mol | 1.03 | -7.321 ± 0.0311 kcal/mol | 2.09 ± 0.02 ×10^5 L/mol | 14.23 ± 0.09 ×10^12 L/mol/s | 14.23 ± 0.09 ×10^4 L/mol | 1.04 | -7.4 ± 0.014 kcal/mol | 1.83 ± 0.01 ×10^5 L/mol | 12.31 ± 0.08 ×10^12 L/mol/s | 12.31 ± 0.08 ×10^4 L/mol | cell viability ([2]; HepG2, 50–200 μg/mL): above 88%; n (number of binding sites) ([6]; T 310 K): 1.03; ΔG^0 ([6]; T 310 K): -7.464 ± 0.017 kcal/mol; ΔH^0 [6]: -3.786 ± 0.012 kcal/mol; ΔS^0 [6]: 49.67 ± 0.08 J/mol/k |
| O=C(O)c1ccc(-c2c3nc(c(-c4ccc(C(=O)O)cc4)c4ccc([nH]4)c(-c4ccc(C(=O)O)cc4)c4nc(c(-c5ccc(C(=O)O)cc5)c5ccc2[nH]5)C=C4)C=C3)cc1.[Cu+2] [Cu–TCPP, copper (II) meso-tetra (4-carboxyphenyl)porphyrin] | 25.33 ± 0.55 µg/mL | 313.1 | 16.48 | remained relatively stable | small fluctuations | (0.69 ± 0.01) × 10^5 L·mol^−1 | static quenching | 55.21 ± 0.11 ×10^5 L/mol | 7.35 ± 0.09 ×10^12 L/mol/s | 7.35 ± 0.09 ×10^4 L/mol | 1.44 | -9.192 ± 0.019 kcal/mol | 7.38 ± 0.04 ×10^5 L/mol | 6.74 ± 0.03 ×10^12 L/mol/s | 6.74 ± 0.03 ×10^4 L/mol | 1.25 | -8.162 ± 0.012 kcal/mol | 0.69 ± 0.01 ×10^5 L/mol | 5.05 ± 0.02 ×10^12 L/mol/s | 5.05 ± 0.02 ×10^4 L/mol | cell viability (survival rate) ([2]; HepG2, 200 μg/mL): 43.13 ± 5.53%; cell viability ([2]; HepG2, 50–100 μg/mL): above 80%; n (number of binding sites) ([6]; T 310 K): 1.03; ΔG^0 ([6]; T 310 K): -6.859 ± 0.0096 kcal/mol; ΔH^0 [6]: -67.103 ± 0.0311 kcal/mol; ΔS^0 [6]: −812.45 ± 0.17 J/mol/k |
